According to PMC12748989 (Nature Communications, 2025):

Assays:
PBMC = conditions: 12.5 µM

Structure (SMILES) | Average (percentage cell inhibition), Mastoparan PBMC (PBMC) | Average (percentage cell inhibition), Dmastoparan MDA-MB231 12.5uM (MDA-MB-231 cells)
CC[C@H](C)[C@H](NC(=O)[C@H](CCCCN)NC(=O)[C@H](CCCCN)NC(=O)[C@H](C)NC(=O)[C@H](CC(C)C)NC(=O)[C@H](C)NC(=O)[C@H](C)NC(=O)[C@H](CC(C)C)NC(=O)[C@H](C)NC(=O)[C@H](CCCCN)NC(=O)[C@H](CC(C)C)NC(=O)[C@H](CC(N)=O)NC(=O)[C@H](C)N)C(=O)N[C@@H](CC(C)C)C(N)=O [A1] | 5.463% | 30.2333%
CC[C@H](C)[C@H](N)C(=O)N[C@@H](C)C(=O)N[C@@H](CC(C)C)C(=O)N[C@@H](CCCCN)C(=O)N[C@@H](C)C(=O)N[C@@H](CC(C)C)C(=O)N[C@@H](C)C(=O)N[C@@H](C)C(=O)N[C@@H](CC(C)C)C(=O)N[C@@H](C)C(=O)N[C@@H](CCCCN)C(=O)N[C@@H](CCCCN)C(=O)N[C@H](C(=O)N[C@@H](CC(C)C)C(N)=O)[C@@H](C)CC [A2] | 9.183% | 38.1038%
CC[C@H](C)[C@H](N)C(=O)N[C@@H](CC(N)=O)C(=O)N[C@@H](C)C(=O)N[C@@H](CCCCN)C(=O)N[C@@H](C)C(=O)N[C@@H](CC(C)C)C(=O)N[C@@H](C)C(=O)N[C@@H](C)C(=O)N[C@@H](CC(C)C)C(=O)N[C@@H](C)C(=O)N[C@@H](CCCCN)C(=O)N[C@@H](CCCCN)C(=O)N[C@H](C(=O)N[C@@H](CC(C)C)C(N)=O)[C@@H](C)CC [A3] | -7.622% | 17.9778%
CC[C@H](C)[C@H](N)C(=O)N[C@@H](CC(N)=O)C(=O)N[C@@H](CC(C)C)C(=O)N[C@@H](C)C(=O)N[C@@H](C)C(=O)N[C@@H](CC(C)C)C(=O)N[C@@H](C)C(=O)N[C@@H](C)C(=O)N[C@@H](CC(C)C)C(=O)N[C@@H](C)C(=O)N[C@@H](CCCCN)C(=O)N[C@@H](CCCCN)C(=O)N[C@H](C(=O)N[C@@H](CC(C)C)C(N)=O)[C@@H](C)CC [A4] | 11.5193% | 36.5883%
CC[C@H](C)[C@H](N)C(=O)N[C@@H](CC(N)=O)C(=O)N[C@@H](CC(C)C)C(=O)N[C@@H](CCCCN)C(=O)N[C@@H](C)C(=O)N[C@@H](C)C(=O)N[C@@H](C)C(=O)N[C@@H](C)C(=O)N[C@@H](CC(C)C)C(=O)N[C@@H](C)C(=O)N[C@@H](CCCCN)C(=O)N[C@@H](CCCCN)C(=O)N[C@H](C(=O)N[C@@H](CC(C)C)C(N)=O)[C@@H](C)CC [A6] | -1.6231% | 16.1268%
CC[C@H](C)[C@H](N)C(=O)N[C@@H](CC(N)=O)C(=O)N[C@@H](CC(C)C)C(=O)N[C@@H](CCCCN)C(=O)N[C@@H](C)C(=O)N[C@@H](CC(C)C)C(=O)N[C@@H](C)C(=O)N[C@@H](C)C(=O)N[C@@H](C)C(=O)N[C@@H](C)C(=O)N[C@@H](CCCCN)C(=O)N[C@@H](CCCCN)C(=O)N[C@H](C(=O)N[C@@H](CC(C)C)C(N)=O)[C@@H](C)CC [A9] | -3.746% | 23.1985%
CC[C@H](C)[C@H](N)C(=O)N[C@@H](CC(N)=O)C(=O)N[C@@H](CC(C)C)C(=O)N[C@@H](CCCCN)C(=O)N[C@@H](C)C(=O)N[C@@H](CC(C)C)C(=O)N[C@@H](C)C(=O)N[C@@H](C)C(=O)N[C@@H](CC(C)C)C(=O)N[C@@H](C)C(=O)N[C@@H](C)C(=O)N[C@@H](CCCCN)C(=O)N[C@H](C(=O)N[C@@H](CC(C)C)C(N)=O)[C@@H](C)CC [A11] | 11.43% | 45.8441%
CC[C@H](C)[C@H](N)C(=O)N[C@@H](CC(N)=O)C(=O)N[C@@H](CC(C)C)C(=O)N[C@@H](CCCCN)C(=O)N[C@@H](C)C(=O)N[C@@H](CC(C)C)C(=O)N[C@@H](C)C(=O)N[C@@H](C)C(=O)N[C@@H](CC(C)C)C(=O)N[C@@H](C)C(=O)N[C@@H](CCCCN)C(=O)N[C@@H](C)C(=O)N[C@H](C(=O)N[C@@H](CC(C)C)C(N)=O)[C@@H](C)CC [A12] | 17.0691% | 42.9356%
CC[C@H](C)[C@H](N)C(=O)N[C@@H](CC(N)=O)C(=O)N[C@@H](CC(C)C)C(=O)N[C@@H](CCCCN)C(=O)N[C@@H](C)C(=O)N[C@@H](CC(C)C)C(=O)N[C@@H](C)C(=O)N[C@@H](C)C(=O)N[C@@H](CC(C)C)C(=O)N[C@@H](C)C(=O)N[C@@H](CCCCN)C(=O)N[C@@H](CCCCN)C(=O)N[C@@H](C)C(=O)N[C@@H](CC(C)C)C(N)=O [A13] | 5.573% | 24.196%
CC[C@H](C)[C@H](N)C(=O)N[C@@H](CC(N)=O)C(=O)N[C@@H](CC(C)C)C(=O)N[C@@H](CCCCN)C(=O)N[C@@H](C)C(=O)N[C@@H](CC(C)C)C(=O)N[C@@H](C)C(=O)N[C@@H](C)C(=O)N[C@@H](CC(C)C)C(=O)N[C@@H](C)C(=O)N[C@@H](CCCCN)C(=O)N[C@@H](CCCCN)C(=O)N[C@H](C(=O)N[C@@H](C)C(N)=O)[C@@H](C)CC [A14] | 6.423% | 12.3553%
CC[C@H](C)[C@H](NC(=O)[C@H](CCCCN)NC(=O)[C@H](CCCCN)NC(=O)[C@H](C)NC(=O)[C@H](CC(C)C)NC(=O)[C@H](C)NC(=O)[C@H](C)NC(=O)[C@H](CC(C)C)NC(=O)[C@H](C)NC(=O)[C@H](CCCCN)NC(=O)[C@H](CC(C)C)NC(=O)[C@H](CC(N)=O)NC(=O)[C@@H](N)CCC(=O)O)C(=O)N[C@@H](CC(C)C)C(N)=O [E1] | 8.369% | 25.5598%
CC[C@H](C)[C@H](N)C(=O)N[C@@H](CCC(=O)O)C(=O)N[C@@H](CC(C)C)C(=O)N[C@@H](CCCCN)C(=O)N[C@@H](C)C(=O)N[C@@H](CC(C)C)C(=O)N[C@@H](C)C(=O)N[C@@H](C)C(=O)N[C@@H](CC(C)C)C(=O)N[C@@H](C)C(=O)N[C@@H](CCCCN)C(=O)N[C@@H](CCCCN)C(=O)N[C@H](C(=O)N[C@@H](CC(C)C)C(N)=O)[C@@H](C)CC [E2] | 11.8092% | 39.1083%
CC[C@H](C)[C@H](N)C(=O)N[C@@H](CC(N)=O)C(=O)N[C@@H](CCC(=O)O)C(=O)N[C@@H](CCCCN)C(=O)N[C@@H](C)C(=O)N[C@@H](CC(C)C)C(=O)N[C@@H](C)C(=O)N[C@@H](C)C(=O)N[C@@H](CC(C)C)C(=O)N[C@@H](C)C(=O)N[C@@H](CCCCN)C(=O)N[C@@H](CCCCN)C(=O)N[C@H](C(=O)N[C@@H](CC(C)C)C(N)=O)[C@@H](C)CC [E3] | 5.899% | 14.5974%
CC[C@H](C)[C@H](N)C(=O)N[C@@H](CC(N)=O)C(=O)N[C@@H](CC(C)C)C(=O)N[C@@H](CCC(=O)O)C(=O)N[C@@H](C)C(=O)N[C@@H](CC(C)C)C(=O)N[C@@H](C)C(=O)N[C@@H](C)C(=O)N[C@@H](CC(C)C)C(=O)N[C@@H](C)C(=O)N[C@@H](CCCCN)C(=O)N[C@@H](CCCCN)C(=O)N[C@H](C(=O)N[C@@H](CC(C)C)C(N)=O)[C@@H](C)CC [E4] | 5.1636% | 27.9326%
CC[C@H](C)[C@H](N)C(=O)N[C@@H](CC(N)=O)C(=O)N[C@@H](CC(C)C)C(=O)N[C@@H](CCCCN)C(=O)N[C@@H](CCC(=O)O)C(=O)N[C@@H](CC(C)C)C(=O)N[C@@H](C)C(=O)N[C@@H](C)C(=O)N[C@@H](CC(C)C)C(=O)N[C@@H](C)C(=O)N[C@@H](CCCCN)C(=O)N[C@@H](CCCCN)C(=O)N[C@H](C(=O)N[C@@H](CC(C)C)C(N)=O)[C@@H](C)CC [E5] | 3.135% | 15.4865%
CC[C@H](C)[C@H](N)C(=O)N[C@@H](CC(N)=O)C(=O)N[C@@H](CC(C)C)C(=O)N[C@@H](CCCCN)C(=O)N[C@@H](C)C(=O)N[C@@H](CCC(=O)O)C(=O)N[C@@H](C)C(=O)N[C@@H](C)C(=O)N[C@@H](CC(C)C)C(=O)N[C@@H](C)C(=O)N[C@@H](CCCCN)C(=O)N[C@@H](CCCCN)C(=O)N[C@H](C(=O)N[C@@H](CC(C)C)C(N)=O)[C@@H](C)CC [E6] | 3.211% | 39.2363%
CC[C@H](C)[C@H](N)C(=O)N[C@@H](CC(N)=O)C(=O)N[C@@H](CC(C)C)C(=O)N[C@@H](CCCCN)C(=O)N[C@@H](C)C(=O)N[C@@H](CC(C)C)C(=O)N[C@@H](CCC(=O)O)C(=O)N[C@@H](C)C(=O)N[C@@H](CC(C)C)C(=O)N[C@@H](C)C(=O)N[C@@H](CCCCN)C(=O)N[C@@H](CCCCN)C(=O)N[C@H](C(=O)N[C@@H](CC(C)C)C(N)=O)[C@@H](C)CC [E7] | 6.221% | 27.5958%
CC[C@H](C)[C@H](N)C(=O)N[C@@H](CC(N)=O)C(=O)N[C@@H](CC(C)C)C(=O)N[C@@H](CCCCN)C(=O)N[C@@H](C)C(=O)N[C@@H](CC(C)C)C(=O)N[C@@H](C)C(=O)N[C@@H](CCC(=O)O)C(=O)N[C@@H](CC(C)C)C(=O)N[C@@H](C)C(=O)N[C@@H](CCCCN)C(=O)N[C@@H](CCCCN)C(=O)N[C@H](C(=O)N[C@@H](CC(C)C)C(N)=O)[C@@H](C)CC [E8] | 13.1597% | 39.5903%
CC[C@H](C)[C@H](N)C(=O)N[C@@H](CC(N)=O)C(=O)N[C@@H](CC(C)C)C(=O)N[C@@H](CCCCN)C(=O)N[C@@H](C)C(=O)N[C@@H](CC(C)C)C(=O)N[C@@H](C)C(=O)N[C@@H](C)C(=O)N[C@@H](CCC(=O)O)C(=O)N[C@@H](C)C(=O)N[C@@H](CCCCN)C(=O)N[C@@H](CCCCN)C(=O)N[C@H](C(=O)N[C@@H](CC(C)C)C(N)=O)[C@@H](C)CC [E9] | 0.4268% | 4.314%
